Measured values taken from US9278994B2, “Short antimicrobial lipopeptides” (Helix BioMedix Inc., priority 2012, dated 2016).
≈ marks a conversion by molar mass, not a printed value. Where a SMILES comes first, the peptide text is derived from it. [ ]: non-standard residue; d: D form. The star is where a group is joined. Palmitoyl = CCCCCCCCCCCCCCCC(=O)*; Myristoyl = CCCCCCCCCCCCCC(=O)*; Undecanoyl = CCCCCCCCCCC(=O)*; Lauroyl = CCCCCCCCCCCC(=O)*; Decanoyl = CCCCCCCCCC(=O)*; Octanoyl = CCCCCCCC(=O)*

Experiments:
E. coli UB1005 = system: E. coli UB1005
Method: (§1) We conducted the minimal inhibitory concentration (MIC) determination using CLSI (Clinical and Laboratory standard Institute) recommended standard protocol for antimicrobials (Methods for Dilution Antimicrobial Susceptibility Tests for Bacteria That Grow Aerobically; Approved Standard—Ninth Edition).
(§2) 2. Bacterial strains and culture conditions. E. coli UB1005, S. aureus SAP0017 (MRSA) and C. albicans 105 were grown in Mueller Hinton (MH) (Difco, BD Biosciences, MD) agar plates and broth (2 g of beef extract, 17.5 g of acid hydrolysis of casein and 1.5 g of starch per liter) at 37° C. unless otherwise indicated. Bacteria from frozen stock were subcultured onto freshly made MH agar plates prior to susceptibility testing. For P. acnes, the bacterium was grown in BBL™ Brain-Heart infusion (Becton, Dickinson & Company, Sparks Md.) broth or agar plates at 37° C. in anaerobic condition generated using a anaerobic jar and AnaeroGen™ (Oxoid, Basingstoke, Hampshire, England).
(§3) 3. […] The minimal inhibitory concentration (MIC) of each peptide was determined using modified CLSI microtiter broth dilution assay (Methods for Dilution Antimicrobial Susceptibility Tests for Bacteria That Grow Aerobically; Approved Standard—Ninth Edition). An inoculum of 10^5-10^6 colony forming units (CFU)/ml was used or 10^4 CFU/ml for yeast. The MIC value was taken as the lowest peptide concentration at which more than 90% of microbial growth was inhibited after 15 to 20 h of incubation at 37° C. For P. acnes, the incubation was kept under anaerobic condition at 37° C. for 2 weeks before MIC was determined Kill kinetics was performed using a given concentration (about 2-5-fold MIC) of peptide mixed with indicator microorganism. After appropriate dilution the cells were plated on agar plates after defined time intervals and incubated at 37° C. overnight. In the case of P. acnes an extended incubation period was required. The CFU was counted and plotted as survival of bacteria after peptide treatment over time, which indicates the effectiveness of a peptide to kill a microbe.

S. aureus SAP0017 (MRSA) = system: S. aureus SAP0017 (MRSA)
Method: as §1, §2, §3

C. albicans 105 = system: C. albicans 105
Method: as §1, §2, §3

P. acnes = format: cell-based, Propionibacterium acnes
Method: as §2, §3

SMILES	MIC E. coli (E. coli UB1005) [µg/mL]	MIC S. aureus (S. aureus SAP0017 (MRSA)) [µg/mL]	MIC C. albicans (C. albicans 105) [µg/mL]	MIC P. acnes (P. acnes) [µg/mL]
CCCCCCCCCCCC(=O)N[C@@H](CCCCN)C(=O)N1CCC[C@H]1C(=O)N[C@H](C(N)=O)C(C)C [HB2190, Lauroyl-KPV-NH2] (Lauroyl-Lys-Pro-Val-NH2)	250 (≈ 0.477 mM)	250 (≈ 0.477 mM)	>2000	64 (≈ 0.122 mM)
CCCCCCCCCC(=O)N[C@@H](CCCCN)C(=O)N1CCC[C@H]1C(=O)N[C@H](C(=O)O)C(C)C [HB2185, Dec-KPV-OH] (Decanoyl-Lys-Pro-Val-OH)	>2000	>2000	>2000	>2000
CCCCCCCCCCCCCCCC(=O)N[C@@H](CCCCN)C(=O)N1CCC[C@@H]1C(=O)N[C@H](C(N)=O)[C@@H](C)O [HB2200, Pal-K-dPT-NH2] (Palmitoyl-Lys-[dP]-Thr-NH2)	64 (≈ 0.11 mM)	4 (≈ 0.00687 mM)	16 (≈ 0.0275 mM)	2 (≈ 0.00344 mM)
CCCCCCCCCCCCCCCC(=O)N[C@@H](CCCCN)C(=O)N[C@@H](C(N)=O)[C@H](C)O [HB2237, Pal-K-dT-NH2]	>2000	>2000	>2000	128 to 256
CCCCCCCCCCCCCCCC(=O)N[C@@H](CCCCN)C(=O)N[C@@H](CO)C(N)=O [HB2245, Pal-KS-NH2]	>2000	1000 (≈ 2.12 mM)	>2000	128 (≈ 0.272 mM)
CCCCCCCCCCCCCCCC(=O)N[C@@H](CCCCN)C(=O)N[C@H](C(N)=O)[C@@H](C)O [HB2236, Pal-KT-NH2]	>2000	>2000	>2000	256 to 1000
CCCCCCCCCCCCCCCC(=O)N1CCC[C@H]1C(=O)N[C@@H](CCCCN)C(N)=O [HB2251, Pal-PK-NH2] (Palmitoyl-Pro-Lys-NH2)	2000 (≈ 4.16 mM)	128 (≈ 0.266 mM)	128 (≈ 0.266 mM)	4 to 16
CCCCCCCCCCCCCCCC(=O)N[C@@H](CCCCN)C(=O)N[C@@H](Cc1ccc(O)cc1)C(N)=O [HB2247, Pal-KY-NH2]	>2000	>2000	>2000	>2000
CCCCCCCCCCC(=O)N[C@@H](CCCCN)C(=O)N1CCC[C@@H]1C(=O)N[C@H](C(N)=O)[C@@H](C)O [HB2196, Undecoyl-KdPT-NH2] (Undecanoyl-Lys-[dP]-Thr-NH2)	2000 (≈ 3.91 mM)	1000 (≈ 1.95 mM)	1000 (≈ 1.95 mM)	256 to 500
CCCCCCCC(=O)N[C@@H](CCCCN)C(=O)N1CCC[C@H]1C(=O)N[C@H](C(N)=O)C(C)C [HB2188, Octanoyl-KPV-NH2] (Octanoyl-Lys-Pro-Val-NH2)	>2000	>2000	>2000	>2000
CCCCCCCCCCCC(=O)N[C@@H](CCCCN)C(=O)N1CCC[C@@H]1C(=O)N[C@H](C(N)=O)[C@@H](C)O [HB2197, Lauroyl-kdPT-NH2] (Lauroyl-Lys-[dP]-Thr-NH2)	1000 (≈ 1.9 mM)	500 (≈ 0.951 mM)	500 (≈ 0.951 mM)	128 (≈ 0.243 mM)
CCCCCCCCCCCCCCCC(=O)N[C@@H](CCCCN)C(=O)N[C@@H](CC(=O)O)C(N)=O [HB2252, Pal-KD-NH2] (Palmitoyl-Lys-Asp-NH2)	>2000	>2000	>2000	
CCCCCCCCCCCCCCCC(=O)N1CCC[C@@H]1C(=O)N[C@@H](CO)C(N)=O [HB2207, Pal-dPS-NH2] (Palmitoyl-[dP]-Ser-NH2)	>2000	>2000	>2000	32 (≈ 0.0728 mM)
CCCCCCCCCCCCCCCC(=O)N[C@@H](CCCCN)C(=O)N1CCC[C@@H]1C(=O)O [HB2256, Pal-K-dP-OH] (Palmitoyl-Lys-[dP]-OH)	>2000	>2000	>2000	>2000
CCCCCCCCCCCCCCCC(=O)N[C@@H](CCCCN)C(=O)N[C@@H](CCCCN)C(=O)O [HB2258, Pal-KK-OH]	32 (≈ 0.0624 mM)	16 (≈ 0.0312 mM)	64 (≈ 0.125 mM)	1 to 4
CCCCCCCCCC(=O)N[C@@H](CCCCN)C(=O)N1CCC[C@@H]1C(=O)N[C@H](C(N)=O)[C@@H](C)O [HB2179, Dec-K-dPT-NH2] (Decanoyl-Lys-[dP]-Thr-NH2)	>2000	>2000	>2000	>2000
CCCCCCCCCCCCCCC(=O)N[C@@H](CCCCN)C(=O)N1CCC[C@@H]1C(=O)N[C@H](C(N)=O)[C@@H](C)O [HB2199, Pentadecanoyl-KdPT-NH2]	64 (≈ 0.113 mM)	32 (≈ 0.0564 mM)	32 (≈ 0.0564 mM)	2 to 4
CCCCCCCCCCCCCCCC(=O)N[C@@H](CCCCN)C(=O)N[C@H](C(N)=O)C(C)C [HB2239, Pal-KV-NH2] (Palmitoyl-Lys-Val-NH2)	>2000	>2000	>2000	>2000
CCCCCCCCCCCCCCCC(=O)N[C@@H](CCCCN)C(=O)N[C@@H](CCCCN)C(N)=O [HB2238, Pal-KK-NH2]	2 (≈ 0.00391 mM)	4 (≈ 0.00782 mM)	16 (≈ 0.0313 mM)	
CCCCCCCCCCCCCCCC(=O)N[C@@H](CCCCN)C(=O)N[C@@H](Cc1ccccc1)C(N)=O [HB2241, Pal-KF-NH2]	>2000	>2000	>2000	>2000
CCCCCCCCCCCCCCCC(=O)N[C@@H](CCCCN)C(=O)N[C@@H](Cc1c[nH]c2ccccc12)C(N)=O [HB2248, Pal-KW-NH2] (Palmitoyl-Lys-Trp-NH2)	>2000	>2000	>2000	>2000
CCCCCCCCCCCCCC(=O)N[C@@H](CCCCN)C(=O)N1CCC[C@H]1C(=O)N[C@H](C(N)=O)C(C)C [HB2191, Myristoyl-KPV-NH2] (Myristoyl-Lys-Pro-Val-NH2)	500 (≈ 0.906 mM)	250 (≈ 0.453 mM)	250 (≈ 0.453 mM)	16 (≈ 0.029 mM)
CCCCCCCCCCCCCCCC(=O)N1CCC[C@H]1C(=O)N[C@H](C(N)=O)C(C)C [HB2205, Pal-PV-NH2] (Palmitoyl-Pro-Val-NH2)	>2000	>2000	>2000	>2000
CCCCCCCCCCC(=O)N[C@@H](CCCCN)C(=O)N1CCC[C@H]1C(=O)N[C@H](C(N)=O)C(C)C [HB2189, Undecoyl-KPV-NH2] (Undecanoyl-Lys-Pro-Val-NH2)	2000 (≈ 3.92 mM)	1000 (≈ 1.96 mM)	>2000	256 to 500
